Assay results published in US6664214B1, “Uracil compounds and use thereof” (Sumitomo Chemical Company, Limited, priority 1999, dated 2003).

What was measured:
ivyleaf morningglory [1] = assay: Test Example 4: soil surface treatment on upland field (Table 5); assay type: in vivo, Ipomoea hederacea; set-up: key: 0: little difference in the degree of germination or growth between the treated plants and the untreated plants at the time of examination; 10: the treated plants died completely or their germination or growth was completely inhibited; details: 500 g/ha active ingredient, examined 12 days after application, index 0-10
Source text: (§1) In the examples, the compounds are identified by the Compound Numbers as in Tables 1 to 3. […] A cylindrical plastic pot having a diameter of 10 cm and a depth of 10 cm was filled with soil and seeded ivyleaf morningglory, velvetleaf and barnyardgrass. Then each of compounds listed below was formulated into an emulsifiable concentrate according to Formulation Example 2 and then diluted to the prescribed amount with water and dilution was uniformly sprayed over the surface of the soil with sprayer at the rate of 1000 liters per hectare. After the application, the test plants were grown in a greenhouse for 12 days, and the herbicidal activity was examined.

velvetleaf [2] = assay: as above; assay type: in vivo, Abutilon theophrasti; set-up: key: 0: little difference in the degree of germination or growth between the treated plants and the untreated plants at the time of examination; 10: the treated plants died completely or their germination or growth was completely inhibited; details: 500 g/ha active ingredient, examined 12 days after application, index 0-10
Source text: as §1

giant foxtail = assay: Test Example 6: foliar treatment on upland field (Table 7); assay type: in vivo, Setaria faberi; set-up: key: 0: little difference in the degree of germination or growth between the treated plants and the untreated plants at the time of examination; 10: the treated plants died completely or their germination or growth was completely inhibited; details: 8 g/ha, 19 days after application, index 0 to 10
Procedure: (§2) In the examples, the compounds are identified by the Compound Numbers as in Tables 1 to 3. […] A plastic pot having a area of 27×20 cm^2 and a depth of 7.5 cm filled with soil, seeded with barnyardgrass. The test plant was grown in a greenhouse for 4 days. The seedlings of large crabgrass and giant foxtail, which were seeded into a pot for plug seedlings and grown in a greenhouse for 14 days, were transplanted into the plastic pot. The test plants, further, were grown in the greenhouse for 8 days. Then each of compound listed below was formulated into an emulsifiable concentrate according to Formulation Example 2 and then diluted to the prescribed amount with water containing a spreading agent and the dilution was uniformly sprayed over the foliage of the test plants with sprayer at a rate of 1000 liters per hectare. After the application, the test plants were grown in the greenhouse for 19 days, and the herbicidal activity were determined.

large crabgrass [3] = assay: as above; assay type: in vivo, Digitaria sanguinalis; set-up: key: 0: little difference in the degree of germination or growth between the treated plants and the untreated plants at the time of examination; 10: the treated plants died completely or their germination or growth was completely inhibited; details: 8 g/ha, 19 days after application, index 0 to 10
Procedure: as §2

velvetleaf [4] = assay: Test Example 1: foliar treatment on upland field; assay type: in vivo, Abutilon theophrasti; details: 125 g/ha, 8 days after application
Procedure: (§3) In the examples, the compounds are identified by the Compound Numbers as in Tables 1 to 3.
(§4) A cylindrical plastic pot having a diameter of 10 cm and a depth of 10 cm was filled with soil and seeded with ivyleaf momingglory, velvetleaf and bamyardgrass. These test plants were grown in a greenhouse for 9 days. Then each of compounds 1-1, 2-1, 2-2, 3-1 and 3-101 was formulated into an emulsifiable concentrate according to Formulation Example 2 and then diluted to the prescribed amount with water containing a spreading agent and the dilution was uniformly sprayed over the foliage of the test plants with sprayer at a rate of 1000 liters per hectare. After the application, the test plants were grown in the greenhouse for 8 days, and the herbicidal activity were determined.

barnyardgrass [5] = assay: Test Example 6: foliar treatment on upland field (Table 7); assay type: in vivo, Echinochloa crus-galli; set-up: key: 0: little difference in the degree of germination or growth between the treated plants and the untreated plants at the time of examination; 10: the treated plants died completely or their germination or growth was completely inhibited; details: 8 g/ha, 19 days after application, index 0 to 10
Procedure: as §2

velvetleaf [6] = assay: Test Example 3: foliar treatment on upland field (Table 4); assay type: in vivo, Abutilon theophrasti; set-up: key: 0: little difference in the degree of germination or growth between the treated plants and the untreated plants at the time of examination; 10: the treated plants died completely or their germination or growth was completely inhibited; details: 125 g/ha active ingredient, examined 16 days after application, index 0-10
Procedure: (§5) In the examples, the compounds are identified by the Compound Numbers as in Tables 1 to 3. […] A cylindrical plastic pot having a diameter of 10 cm and a depth of 10 cm was filled with soil and seeded with ivyleaf momingglory, velvetleaf and barnyardgrass. These test plants were grown in a greenhouse for 10 days. Then each of compounds listed below was formulated into an emulsifiable concentrate according to Formulation Example 2 and then diluted to the prescribed amount with water containing a spreading agent and the dilution was uniformly sprayed over the foliage of the test plants with sprayer at a rate of 1000 liters per hectare. After the application, the test plants were grown in the greenhouse for 16 days, and the herbicidal activity were determined.

velvetleaf [7] = assay: Test Example 2: soil surface treatment on upland field; assay type: in vivo, Abutilon theophrasti; details: 500 g/ha, 12 days after application
Source text: as §1, with “seeded with velvetleaf.” for “seeded ivyleaf morningglory, velvetleaf and barnyardgrass.”, “compounds 1-1, 2-1, 2-2, 3-1 and 3-101” for “compounds listed below”, “at a” for “at the”

barnyardgrass [8] = assay: Test Example 4: soil surface treatment on upland field (Table 5); assay type: in vivo, Echinochloa crus-galli; set-up: key: 0: little difference in the degree of germination or growth between the treated plants and the untreated plants at the time of examination; 10: the treated plants died completely or their germination or growth was completely inhibited; details: 500 g/ha active ingredient, examined 12 days after application, index 0-10
Source text: as §1

ivyleaf morningglory [9] = assay: Test Example 3: foliar treatment on upland field (Table 4); assay type: in vivo, Ipomoea hederacea; set-up: key: 0: little difference in the degree of germination or growth between the treated plants and the untreated plants at the time of examination; 10: the treated plants died completely or their germination or growth was completely inhibited; details: 125 g/ha active ingredient, examined 16 days after application, index 0-10
Procedure: as §5

barnyardgrass [10] = assay: Test Example 1: foliar treatment on upland field; assay type: in vivo, Echinochloa crus-galli; details: 125 g/ha, 8 days after application
Procedure: as §3, §4

ivyleaf morningglory [11] = assay: Test Example 1: foliar treatment on upland field; assay type: in vivo, Ipomoea hederacea; details: 125 g/ha, 8 days after application
Procedure: as §3, §4

barnyardgrass [12] = assay: Test Example 3: foliar treatment on upland field (Table 4); assay type: in vivo, Echinochloa crus-galli; set-up: key: 0: little difference in the degree of germination or growth between the treated plants and the untreated plants at the time of examination; 10: the treated plants died completely or their germination or growth was completely inhibited; details: 125 g/ha active ingredient, examined 16 days after application, index 0-10
Procedure: as §5

large crabgrass [13] = assay: Test Example 5: foliar treatment on upland field (Table 6); assay type: in vivo, Digitaria sanguinalis; set-up: key: 0: little difference in the degree of germination or growth between the treated plants and the untreated plants at the time of examination; 10: the treated plants died completely or their germination or growth was completely inhibited; details: 125 g/ha, 19 days after application, index 0 to 10
Procedure: In the examples, the compounds are identified by the Compound Numbers as in Tables 1 to 3. […] A pot for plug seedlings seeded with large crabgrass. The test plant was grown in a greenhouse for 14 days, then transplanted into a plastic pot having an area of 17×12 cm^2 and a depth of 7 cm, and further the test plants were grown in the greenhouse for 8 days. Then each of compounds listed below was formulated into an emulsifiable concentrate according to Formulation Example 2 and then diluted to the prescribed amount with water containing a spreading agent and the dilution was uniformly sprayed over the foliage of the test plants with sprayer at a rate of 1000 liters per hectare. After the application, the test plants were grown in the greenhouse for 19 days, and the herbicidal activity were determined.

SMILES | Herbicidal effect Ivyleaf morningglory (ivyleaf morningglory [1]) | Herbicidal effect Velvetleaf (velvetleaf [2]) | Herbicidal effect Giant foxtail (giant foxtail) | Herbicidal effect Large crabgrass (large crabgrass [3]) | growth of velvetleaf (velvetleaf [4]) | Herbicidal effect Barnyard-grass (barnyardgrass [5]) | Herbicidal effect Velvetleaf (velvetleaf [6]) | germination of velvetleaf (velvetleaf [7]) | Herbicidal effect Barnyardgrass (barnyardgrass [8]) | Herbicidal effect Ivyleaf morningglory (ivyleaf morningglory [9]) | growth of barnyardgrass (barnyardgrass [10]) | growth of ivyleaf morningglory (ivyleaf morningglory [11]) | Herbicidal effect Barnyardgrass (barnyardgrass [12]) | Herbicidal effect Large crabgrass (large crabgrass [13])
COC(=O)C(C)Oc1ccc(COc2cc(-n3c(=O)cc(C(F)(F)F)n(C)c3=O)c(F)cc2Cl)cc1 (centres unmarked) [Compound 1-1, methyl 2-[4-({2-chloro-4-fluoro-5-[3-methyl-2,6-dioxo-4-(trifluoromethyl)-1,2,3,6-tetrahydropyrimidine-1-yl]phenoxyl}methyl)phenoxy]propionate] | 10 | 10 | 9 | 10 | completely controlled | 10 | 10 | completely controlled | 9 | 10 | completely controlled | completely controlled | 10 | 10
COC(=O)C(C)Oc1cccc(COc2cc(-n3c(=O)cc(C(F)(F)F)n(C)c3=O)c(F)cc2Cl)c1 (centres unmarked) [Compound 2-1, methyl 2-[3-({2-chloro-4-fluoro-5-[3-methyl-2,6-dioxo-4-(trifluoromethyl)-1,2,3,6-tetrahydropyrimidine-1-yl]phenoxy}methyl)phenoxy]propionate] | 10 | 10 | 10 | 10 | completely controlled | 10 | 10 | completely controlled | 10 | 10 | completely controlled | completely controlled | 10 | 10
CCOC(=O)C(C)Oc1cccc(COc2cc(-n3c(=O)cc(C(F)(F)F)n(C)c3=O)c(F)cc2Cl)c1 (centres unmarked) [Compound 2-2, Ethyl 2-[3-({2-chloro-4-fluoro-5-[3-methyl-2,6-dioxo-4-(trifluoromethyl)-1,2,3,6-tetrahydropyrimidine-1-yl]phenoxy}methyl)phenoxy]propionate] | 10 | 10 |  |  | completely controlled |  | 10 | completely controlled | 10 | 10 | completely controlled | completely controlled | 10 | 10
COC(=O)C(C)Oc1ccccc1COc1cc(-n2c(=O)cc(C(F)(F)F)n(C)c2=O)c(F)cc1Cl (centres unmarked) [Compound 3-1, methyl 2-[2-({2-chloro-4-fluoro-5-[3-methyl-2,6-dioxo-4-(trifluoromethyl)-1,2,3,6-tetrahydropyrimidine-1-yl]phenoxy}methyl)phenoxy]propionate] |  |  |  |  | completely controlled |  |  | completely controlled |  |  | completely controlled | completely controlled |  | 
CCc1ccc(COc2cc(-n3c(=O)cc(C(F)(F)F)n(C)c3=O)c(F)cc2Cl)c(OC(C)C(=O)OC)c1 (centres unmarked) [Compound 3-101, Methyl 2-[2-({2-chloro-4-fluoro-5-[3-methyl-2,6-dioxo-4-(trifluoromethyl)-1,2,3,6-tetrahydropyrimidine-1-yl]phenoxy}methyl)-5-ethylphenoxy]propionate] |  |  |  |  | completely controlled |  |  | completely controlled |  |  | completely controlled | completely controlled |  | 
